Measured values reported in patent US20110189311A1, “Highly Absorbable Drug Composition and Method of Producing the Same” (TOYO SUGAR REFINING CO., LTD., priority 2009, published 2011).

Key:
[1] = Oral administration of drug compositions to rats, blood (plasma) drug concentration by HPLC and AUC; format: in vivo, wistar rats; conditions: average of five rats
Procedure: As test animals, 9-week-old male clean wistar rats (five rats for each of drug compositions A to F) were used. […] After the administration, blood was collected from the neck vein of each clean wistar rat at predetermined time intervals and was centrifuged (10000 rpm, 5 min) to obtain plasma. Four hundred microliters of methanol was added to 100 μL of the obtained plasma, and the mixture was mixed for 1 minute with a vortex mixer and was centrifuged (10000 rpm, 5 min). […] One hundred microliters of ethanol was added to the resulting dried substance, and the blood drug concentration was measured using a UV detector (JASCO PU-970) of HPLC (JASCO PU-980). […] Based on the thus-measured blood drug concentrations of the drug compositions, concentration changes with passage of time and areas under blood drug concentration-time curves (AUC) were studied. […] Note that the values of AUC and blood drug concentration in Table 1 and FIGS. 1 to 6 are averages in the five clean wistar rats administered with each of the drug compositions A to F, and “SE” means standard error.

[2] = at 37° C.; cited from earlier work
[3] = cited from earlier work

SMILES	AUC (area under flurbiprofen plasma concentration-time curve) ([1]; flurbiprofen (FP), dose 2 mg/kg) [ng·h/mL]	solubility in neutral water [2]	AUC (area under probucol plasma concentration-time curve) ([1]; probucol (PRO), dose 200 mg/kg) [ng·h/mL]	bioavailability to human [3]
CC(C(=O)O)c1ccc(-c2ccccc2)c(F)c1 (centres unmarked) [flurbiprofen]	22060	25 μg/mL water	–	–
CC(C)(Sc1cc(C(C)(C)C)c(O)c(C(C)(C)C)c1)Sc1cc(C(C)(C)C)c(O)c(C(C)(C)C)c1 [probucol]	–	3 to 5 ng/mL water	4940	about 5%
